The results in this text go back to US20240425490A1, “SULFAMIDE RIBONUCLEOTIDE REDUCTASE (RNR) INHIBITORS AND USES THEREOF” (Boundless Bio, Inc., priority 2021, published 2024).

For the test, the target named is T1, RNR (RNR1:RNR2 1:1) (Homo sapiens, UniProt P23921).
T1 sequence (P23921 1-792): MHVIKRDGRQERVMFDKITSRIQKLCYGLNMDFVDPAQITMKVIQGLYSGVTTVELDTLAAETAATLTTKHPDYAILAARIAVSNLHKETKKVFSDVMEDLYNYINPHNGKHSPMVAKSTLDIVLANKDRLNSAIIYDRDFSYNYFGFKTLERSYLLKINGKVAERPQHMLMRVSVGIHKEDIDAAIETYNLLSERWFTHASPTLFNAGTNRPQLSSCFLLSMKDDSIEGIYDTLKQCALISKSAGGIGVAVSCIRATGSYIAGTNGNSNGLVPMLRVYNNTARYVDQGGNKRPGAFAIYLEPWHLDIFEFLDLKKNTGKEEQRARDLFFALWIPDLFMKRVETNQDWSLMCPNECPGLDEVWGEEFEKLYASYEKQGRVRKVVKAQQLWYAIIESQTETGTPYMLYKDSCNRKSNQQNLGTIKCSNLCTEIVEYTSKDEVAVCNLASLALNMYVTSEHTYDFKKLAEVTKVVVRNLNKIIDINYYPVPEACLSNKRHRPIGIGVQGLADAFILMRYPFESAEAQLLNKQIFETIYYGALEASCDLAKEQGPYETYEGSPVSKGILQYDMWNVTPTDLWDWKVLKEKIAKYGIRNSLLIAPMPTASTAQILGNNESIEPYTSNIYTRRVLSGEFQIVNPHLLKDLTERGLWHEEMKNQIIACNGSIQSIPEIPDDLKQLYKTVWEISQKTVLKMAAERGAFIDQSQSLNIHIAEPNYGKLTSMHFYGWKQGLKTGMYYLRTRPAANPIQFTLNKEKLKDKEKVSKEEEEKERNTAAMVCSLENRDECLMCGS
The test is described as follows: RNR enzyme activity, rapid-fire mass spectrometry (RFMS) assay. The test is classed as biochemical. The following applies: RNR 50 nM, CDP 5 μM, ATP 1 mM, 37° C., 45 min, compounds screened up to 50 μM, read-out: RF/MS IC50. Summed up:
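Human RNR1:RNR2 (1:1, 50 nM) pre-incubated 15 min at room temperature with compound, then reacted with 5 μM CDP and 1 mM ATP, no NADPH, for 45 min at 37 °C. Stopped with 6% HCOOH; turnover read by rapid-fire mass spectrometry; Triapine and hydroxyurea as reference compounds.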
As for `Cc1ccc(F)c([C@H](C)[C@H](NS(=O)(=O)N2CCCCC2c2ccccc2)c2n[nH]c(=O)o2)c1C` (stereo partly drawn) [Example 36, N-((1S,2S)-2-(6-fluoro-2,3-dimethylphenyl)-1-(5-oxo-4,5-dihydro-1,3,4-oxadiazol-2-yl)propyl)-2-phenylpiperidine-1-sulfonamide], the IC50 is 10000 to 100000 nM.
`Cc1ccc(F)c([C@@H](C)[C@H](NS(=O)(=O)N2CCC(C(F)F)CC2)c2n[nH]c(=O)o2)c1C` [Example 45, 4-(difluoromethyl)-N-((1S,2R)-2-(6-fluoro-2,3-dimethylphenyl)-1-(5-oxo-4,5-dihydro-1,3,4-oxadiazol-2-yl)propyl)piperidine-1-sulfonamide]: the IC50 is 1000 to 10000 nM.
In the case of `Cc1ccc(F)c(C(C)[C@H](NS(=O)(=O)N2CCC(N3CCCC3=O)CC2)c2n[nH]c(=O)o2)c1C` (stereo partly drawn) [Example 80, N-((1S)-2-(6-fluoro-2,3-dimethylphenyl)-1-(5-oxo-4,5-dihydro-1,3,4-oxadiazol-2-yl)propyl)-4-(2-oxopyrrolidin-1-yl)piperidine-1-sulfonamide], the IC50 was 1000 to 10000 nM.
With `Cc1ccc(F)c([C@@H](C)[C@H](NS(=O)(=O)N2CCC[C@@](C)(O)C2)c2n[nH]c(=O)o2)c1C` [Example 22, (R)-N-((1S,2R)-2-(6-fluoro-2,3-dimethylphenyl)-1-(5-oxo-4,5-dihydro-1,3,4-oxadiazol-2-yl)propyl)-3-hydroxy-3-methylpiperidine-1-sulfonamide] the figure was 10000 to 100000 nM; with `Cc1ccc(F)c([C@@H](C)[C@H](NS(=O)(=O)N2CCC3(CC2)CC(=O)N(C)C3)c2n[nH]c(=O)o2)c1C` [Example 76, N-((1S,2R)-2-(6-fluoro-2,3-dimethylphenyl)-1-(5-oxo-4,5-dihydro-1,3,4-oxadiazol-2-yl)propyl)-2-methyl-3-oxo-2,8-diazaspiro[4.5]decane-8-sulfonamide], 100 to 1000 nM; with `Cc1ccc(F)c([C@@H](C)[C@H](NS(=O)(=O)N2CCC3(CC2)OCCCO3)c2n[nH]c(=O)o2)c1C` [Example 85, N-((1S,2R)-2-(6-fluoro-2,3-dimethylphenyl)-1-(5-oxo-4,5-dihydro-1,3,4-oxadiazol-2-yl)propyl)-1,5-dioxa-9-azaspiro[5.5]undecane-9-sulfonamide], 100 to 1000 nM.
With `Cc1ccc(F)c([C@H](C)[C@H](NS(=O)(=O)N2CCC(c3nncn3C)CC2)c2n[nH]c(=O)o2)c1C` [Example 53, N-((1S,2S)-2-(6-fluoro-2,3-dimethylphenyl)-1-(5-oxo-4,5-dihydro-1,3,4-oxadiazol-2-yl)propyl)-4-(4-methyl-4H-1,2,4-triazol-3-yl)piperidine-1-sulfonamide] the figure was 10000 to 100000 nM; with `Cc1ccc(F)c(C(C)[C@H](NS(=O)(=O)N2CCC(c3ncc[nH]3)CC2)c2n[nH]c(=O)o2)c1C` (stereo partly drawn) [Example 90, N-((1S)-2-(6-fluoro-2,3-dimethylphenyl)-1-(5-oxo-4,5-dihydro-1,3,4-oxadiazol-2-yl)propyl)-4-(1H-imidazol-2-yl)piperidine-1-sulfonamide], 1000 to 10000 nM; with `Cc1ccc(F)c(C(C)[C@H](NS(=O)(=O)N2CCC(n3cccn3)CC2)c2n[nH]c(=O)o2)c1C` (stereo partly drawn) [Example 96, N-((1S)-2-(6-fluoro-2,3-dimethylphenyl)-1-(5-oxo-4,5-dihydro-1,3,4-oxadiazol-2-yl)propyl)-4-(1H-pyrazol-1-yl)piperidine-1-sulfonamide], 1000 to 10000 nM.
For the compound `Cc1ccc(F)c(C(C)[C@H](NS(=O)(=O)N2CCC(Cl)(Cl)C(C)C2)c2n[nH]c(=O)o2)c1C` (stereo partly drawn) [Example 99, 4,4-dichloro-N-((1S)-2-(6-fluoro-2,3-dimethylphenyl)-1-(5-oxo-4,5-dihydro-1,3,4-oxadiazol-2-yl)propyl)-3-methylpiperidine-1-sulfonamide], the IC50 was 100 to 1000 nM.
In the case of `Cc1ccc(F)c([C@@H](C)[C@H](NS(=O)(=O)N2CCCC(C)(C)C2)c2n[nH]c(=O)o2)c1C` [Example 117, N-((1S,2R)-2-(6-fluoro-2,3-dimethylphenyl)-1-(5-oxo-4,5-dihydro-1,3,4-oxadiazol-2-yl)propyl)-3,3-dimethylpiperidine-1-sulfonamide], the IC50 lay in the range of 1000 to 10000 nM.
The same measure for `Cc1ccc(F)c(C(C)[C@H](NS(=O)(=O)N2CCC(F)(F)CC2C)c2n[nH]c(=O)o2)c1C` (stereo partly drawn) [Example 111, 4,4-difluoro-N-((1S)-2-(6-fluoro-2,3-dimethylphenyl)-1-(5-oxo-4,5-dihydro-1,3,4-oxadiazol-2-yl)propyl)-2-methylpiperidine-1-sulfonamide]: 100 to 1000 nM.
With `Cc1ccc(F)c([C@H](C)[C@H](NS(=O)(=O)N2CCC(C(C)C)CC2)c2n[nH]c(=O)o2)c1C` [Example 39, N-((1S,2S)-2-(6-fluoro-2,3-dimethylphenyl)-1-(5-oxo-4,5-dihydro-1,3,4-oxadiazol-2-yl)propyl)-4-isopropylpiperidine-1-sulfonamide] the figure was 1000 to 10000 nM; with `CCN(CC1CC1)S(=O)(=O)N[C@H](c1n[nH]c(=O)o1)[C@H](C)c1c(F)ccc(C)c1C` [Example 118], 1000 to 10000 nM.
For `Cc1ccc(F)c(C(C)[C@H](NS(=O)(=O)N2CCC(Cl)(C#N)CC2)c2n[nH]c(=O)o2)c1C` (stereo partly drawn) [Example 101, 4-chloro-4-cyano-N-((1S)-2-(6-fluoro-2,3-dimethylphenyl)-1-(5-oxo-4,5-dihydro-1,3,4-oxadiazol-2-yl)propyl)piperidine-1-sulfonamide], the IC50 lay in the range of 100 to 1000 nM.
The same measure for `CC(=O)N(C)C1CCN(S(=O)(=O)N[C@H](c2n[nH]c(=O)o2)C(C)c2c(F)ccc(C)c2C)CC1` (stereo partly drawn) [Example 63, N-(1-(N-((1S)-2-(6-fluoro-2,3-dimethylphenyl)-1-(5-oxo-4,5-dihydro-1,3,4-oxadiazol-2-yl)propyl)sulfamoyl)piperidin-4-yl)-N-methylacetamide]: 1000 to 10000 nM; for `Cc1ccc(F)c([C@@H](C)[C@H](NS(=O)(=O)N2CCC3(CCNC3=O)CC2)c2n[nH]c(=O)o2)c1C` [Example 59, N-((1S,2R)-2-(6-fluoro-2,3-dimethylphenyl)-1-(5-oxo-4,5-dihydro-1,3,4-oxadiazol-2-yl)propyl)-1-oxo-2,8-diazaspiro[4.5]decane-8-sulfonamide]: 10000 to 100000 nM.
With `Cc1ccc(F)c(C(C)[C@H](NS(=O)(=O)N2CCC(O)(C(F)(F)F)CC2)c2n[nH]c(=O)o2)c1C` (stereo partly drawn) [Example 89, N-((1S)-2-(6-fluoro-2,3-dimethylphenyl)-1-(5-oxo-4,5-dihydro-1,3,4-oxadiazol-2-yl)propyl)-4-hydroxy-4-(trifluoromethyl)piperidine-1-sulfonamide] the figure was 100 to 1000 nM; with `Cc1ccc(F)c([C@@H](C)[C@H](NS(=O)(=O)N2CCCCC2CC(N)=O)c2n[nH]c(=O)o2)c1C` (stereo partly drawn) [Example 15, 2-(1-(N-((1S,2R)-2-(6-fluoro-2,3-dimethylphenyl)-1-(5-oxo-4,5-dihydro-1,3,4-oxadiazol-2-yl)propyl)sulfamoyl)piperidin-2-yl)acetamide], 100 to 1000 nM.
As for `Cc1ccc(F)c([C@@H](C)[C@H](NS(=O)(=O)N2CCC(Oc3ccccc3)CC2)c2n[nH]c(=O)o2)c1C` [Example 55, N-((1S,2R)-2-(6-fluoro-2,3-dimethylphenyl)-1-(5-oxo-4,5-dihydro-1,3,4-oxadiazol-2-yl)propyl)-4-phenoxypiperidine-1-sulfonamide], the IC50 was in the range of 100 to 1000 nM.
The same measure for `Cc1ccc(F)c([C@@H](C)[C@H](NS(=O)(=O)N2CCCc3ccccc32)c2n[nH]c(=O)o2)c1C` [Example 109, N-((1S,2R)-2-(6-fluoro-2,3-dimethylphenyl)-1-(5-oxo-4,5-dihydro-1,3,4-oxadiazol-2-yl)propyl)-3,4-dihydroquinoline-1(2H)-sulfonamide]: 1000 to 10000 nM; for `Cc1ccc(F)c([C@H](C)[C@H](NS(=O)(=O)N2CCC[C@](C)(O)C2)c2n[nH]c(=O)o2)c1C` [Example 21, (S)-N-((1S,2S)-2-(6-fluoro-2,3-dimethylphenyl)-1-(5-oxo-4,5-dihydro-1,3,4-oxadiazol-2-yl)propyl)-3-hydroxy-3-methylpiperidine-1-sulfonamide]: 1000 to 10000 nM; for `Cc1ccc(F)c(C(C)[C@H](NS(=O)(=O)N2CCCC(C#N)C2)c2n[nH]c(=O)o2)c1C` (stereo partly drawn) [Example 26, 3-cyano-N-((1S)-2-(6-fluoro-2,3-dimethylphenyl)-1-(5-oxo-4,5-dihydro-1,3,4-oxadiazol-2-yl)propyl)piperidine-1-sulfonamide]: 1000 to 10000 nM.
The same measure for `Cc1ccc(F)c(C(C)[C@H](NS(=O)(=O)N2CCC(c3ccccc3)CC2)c2n[nH]c(=O)o2)c1C` (stereo partly drawn) [Example 34, N-((1S)-2-(6-fluoro-2,3-dimethylphenyl)-1-(5-oxo-4,5-dihydro-1,3,4-oxadiazol-2-yl)propyl)-4-phenylpiperidine-1-sulfonamide]: 1000 to 10000 nM.
